Experimental data from PMC8617627, “Novel DYRK1A Inhibitor Rescues Learning and Memory Deficits in a Mouse Model of Down Syndrome” (Pharmaceuticals, 2021).
Read-outs that look alike come from different tables or passages of the source.

Columns and labels:
Assay in all cases: Kinase profile (33P ATP filter binding)
Type in all cases: biochemical
MSK1 = MSK1 (Homo sapiens, UniProt O75582); conditions: read-out: Remaining protein kinase activity
TBK1 = target: T1, TBK1 (Homo sapiens, UniProt Q9UHD2); conditions: read-out: Remaining protein kinase activity
T1 sequence (Q9UHD2 1-729): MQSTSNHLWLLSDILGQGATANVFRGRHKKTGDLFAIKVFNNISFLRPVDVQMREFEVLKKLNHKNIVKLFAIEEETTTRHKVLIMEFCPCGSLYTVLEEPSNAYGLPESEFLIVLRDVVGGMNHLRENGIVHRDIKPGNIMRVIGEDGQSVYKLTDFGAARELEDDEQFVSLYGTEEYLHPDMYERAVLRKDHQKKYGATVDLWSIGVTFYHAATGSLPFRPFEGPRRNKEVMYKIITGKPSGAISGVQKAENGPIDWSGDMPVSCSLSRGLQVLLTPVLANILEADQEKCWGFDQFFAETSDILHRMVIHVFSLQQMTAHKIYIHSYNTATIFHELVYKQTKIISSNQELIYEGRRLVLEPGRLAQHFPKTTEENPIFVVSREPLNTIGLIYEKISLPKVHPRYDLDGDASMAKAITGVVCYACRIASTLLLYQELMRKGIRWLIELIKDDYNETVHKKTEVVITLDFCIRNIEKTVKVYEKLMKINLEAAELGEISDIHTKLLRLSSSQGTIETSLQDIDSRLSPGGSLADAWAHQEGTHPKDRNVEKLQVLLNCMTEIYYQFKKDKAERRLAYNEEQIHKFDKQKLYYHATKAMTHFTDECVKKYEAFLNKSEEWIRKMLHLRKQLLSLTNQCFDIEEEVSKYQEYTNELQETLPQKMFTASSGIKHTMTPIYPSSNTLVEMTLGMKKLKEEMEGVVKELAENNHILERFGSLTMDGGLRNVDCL

CDK9-Cyclin T1 = CDK9-Cyclin T1 (Homo sapiens, UniProt P50750); conditions: read-out: Remaining protein kinase activity
BTK = BTK (Homo sapiens, UniProt Q06187)
MST4 = MST4 (Homo sapiens, UniProt Q9P289); conditions: read-out: Remaining protein kinase activity
PRK2 = PRK2 (Homo sapiens, UniProt Q16513); conditions: read-out: Remaining protein kinase activity
TTK = target: T2, TTK (Homo sapiens, UniProt P33981); conditions: read-out: Remaining protein kinase activity
T2 sequence (P33981 1-857): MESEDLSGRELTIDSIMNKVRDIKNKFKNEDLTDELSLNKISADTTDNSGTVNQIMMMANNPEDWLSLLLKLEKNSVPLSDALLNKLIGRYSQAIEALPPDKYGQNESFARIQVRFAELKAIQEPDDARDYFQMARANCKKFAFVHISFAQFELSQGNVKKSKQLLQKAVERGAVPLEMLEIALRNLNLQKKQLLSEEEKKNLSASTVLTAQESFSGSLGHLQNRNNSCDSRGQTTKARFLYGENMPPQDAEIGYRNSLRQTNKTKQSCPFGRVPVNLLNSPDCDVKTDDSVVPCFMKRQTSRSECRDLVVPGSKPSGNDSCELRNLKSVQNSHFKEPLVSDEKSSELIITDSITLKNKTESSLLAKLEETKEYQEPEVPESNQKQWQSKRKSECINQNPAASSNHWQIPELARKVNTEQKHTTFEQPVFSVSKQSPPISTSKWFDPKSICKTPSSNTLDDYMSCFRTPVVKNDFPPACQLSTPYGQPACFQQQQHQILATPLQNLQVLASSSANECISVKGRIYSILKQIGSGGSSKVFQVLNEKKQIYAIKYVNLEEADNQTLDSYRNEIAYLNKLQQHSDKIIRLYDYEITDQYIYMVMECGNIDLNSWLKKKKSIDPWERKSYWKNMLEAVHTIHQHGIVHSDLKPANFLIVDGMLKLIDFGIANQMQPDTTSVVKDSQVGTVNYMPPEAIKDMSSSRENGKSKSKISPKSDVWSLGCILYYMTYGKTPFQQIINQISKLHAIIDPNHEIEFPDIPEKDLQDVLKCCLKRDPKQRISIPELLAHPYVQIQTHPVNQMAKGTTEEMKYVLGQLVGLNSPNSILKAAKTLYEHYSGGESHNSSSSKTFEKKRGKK

VEG-FR = VEG-FR (Homo sapiens, UniProt P17948); conditions: read-out: Remaining protein kinase activity
VEG-FR, sequence (P17948 27-1338): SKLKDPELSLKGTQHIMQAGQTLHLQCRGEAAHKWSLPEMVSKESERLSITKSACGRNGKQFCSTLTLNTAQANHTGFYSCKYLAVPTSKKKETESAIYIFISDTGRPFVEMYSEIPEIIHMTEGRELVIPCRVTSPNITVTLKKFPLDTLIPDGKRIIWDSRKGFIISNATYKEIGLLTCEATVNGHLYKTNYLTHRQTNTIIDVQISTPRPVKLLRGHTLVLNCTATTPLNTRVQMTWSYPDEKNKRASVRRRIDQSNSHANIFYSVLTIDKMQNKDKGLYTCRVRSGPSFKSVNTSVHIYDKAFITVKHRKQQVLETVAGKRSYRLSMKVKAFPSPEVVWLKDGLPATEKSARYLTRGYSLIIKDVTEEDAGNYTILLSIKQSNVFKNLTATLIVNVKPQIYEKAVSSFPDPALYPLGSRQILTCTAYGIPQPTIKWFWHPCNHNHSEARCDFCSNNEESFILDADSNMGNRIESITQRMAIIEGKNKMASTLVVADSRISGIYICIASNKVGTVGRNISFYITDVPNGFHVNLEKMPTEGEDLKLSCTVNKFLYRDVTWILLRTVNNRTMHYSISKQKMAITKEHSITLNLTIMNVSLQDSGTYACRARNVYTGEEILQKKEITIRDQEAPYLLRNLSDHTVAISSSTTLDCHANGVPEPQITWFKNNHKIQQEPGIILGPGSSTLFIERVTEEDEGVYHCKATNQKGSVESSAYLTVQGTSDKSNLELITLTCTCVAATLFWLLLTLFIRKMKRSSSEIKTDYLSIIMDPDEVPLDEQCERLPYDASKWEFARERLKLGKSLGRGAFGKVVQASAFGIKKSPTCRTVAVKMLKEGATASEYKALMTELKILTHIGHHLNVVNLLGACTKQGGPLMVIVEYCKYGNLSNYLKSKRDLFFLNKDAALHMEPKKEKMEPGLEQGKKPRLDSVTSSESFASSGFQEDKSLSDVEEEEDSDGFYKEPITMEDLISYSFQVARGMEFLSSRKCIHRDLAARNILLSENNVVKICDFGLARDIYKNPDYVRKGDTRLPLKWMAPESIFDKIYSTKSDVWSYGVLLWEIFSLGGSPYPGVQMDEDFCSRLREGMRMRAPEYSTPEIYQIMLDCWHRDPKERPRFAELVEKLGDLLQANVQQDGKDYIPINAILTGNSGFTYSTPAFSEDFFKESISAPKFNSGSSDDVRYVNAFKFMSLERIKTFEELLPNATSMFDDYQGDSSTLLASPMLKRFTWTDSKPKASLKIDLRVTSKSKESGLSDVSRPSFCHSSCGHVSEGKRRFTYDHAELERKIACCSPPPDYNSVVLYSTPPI

CDK9-Cyclin T1, sequence (P50750 whole entry): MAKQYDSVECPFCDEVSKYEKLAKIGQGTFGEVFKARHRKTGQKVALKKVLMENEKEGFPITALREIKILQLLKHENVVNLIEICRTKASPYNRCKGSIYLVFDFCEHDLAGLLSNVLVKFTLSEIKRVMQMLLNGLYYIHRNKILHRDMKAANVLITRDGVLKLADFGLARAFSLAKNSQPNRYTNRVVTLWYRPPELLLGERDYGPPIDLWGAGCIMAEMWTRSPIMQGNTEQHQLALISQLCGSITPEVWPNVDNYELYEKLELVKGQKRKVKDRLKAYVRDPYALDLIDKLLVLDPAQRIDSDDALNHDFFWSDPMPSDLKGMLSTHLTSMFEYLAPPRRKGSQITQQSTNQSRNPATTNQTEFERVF
CDK9-Cyclin T1, sequence (O60563 whole entry partner): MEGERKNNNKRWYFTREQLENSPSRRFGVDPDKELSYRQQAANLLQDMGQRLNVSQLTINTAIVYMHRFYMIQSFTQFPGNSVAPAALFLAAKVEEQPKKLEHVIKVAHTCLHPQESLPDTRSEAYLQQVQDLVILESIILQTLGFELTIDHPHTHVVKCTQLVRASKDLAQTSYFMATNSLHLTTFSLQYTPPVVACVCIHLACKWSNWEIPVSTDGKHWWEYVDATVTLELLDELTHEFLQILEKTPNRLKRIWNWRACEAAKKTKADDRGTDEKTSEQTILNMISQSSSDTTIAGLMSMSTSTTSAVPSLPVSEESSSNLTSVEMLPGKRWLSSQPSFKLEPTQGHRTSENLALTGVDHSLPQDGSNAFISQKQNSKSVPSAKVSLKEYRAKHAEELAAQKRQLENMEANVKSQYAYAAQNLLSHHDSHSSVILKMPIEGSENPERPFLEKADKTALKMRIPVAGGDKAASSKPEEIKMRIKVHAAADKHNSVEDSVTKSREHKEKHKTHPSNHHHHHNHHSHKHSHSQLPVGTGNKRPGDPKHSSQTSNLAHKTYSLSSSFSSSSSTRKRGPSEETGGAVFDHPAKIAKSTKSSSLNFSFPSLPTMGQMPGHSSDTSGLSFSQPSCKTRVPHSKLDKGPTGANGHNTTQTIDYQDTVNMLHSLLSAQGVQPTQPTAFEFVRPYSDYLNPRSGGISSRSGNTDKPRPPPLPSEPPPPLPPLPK
BTK, sequence (Q06187 whole entry): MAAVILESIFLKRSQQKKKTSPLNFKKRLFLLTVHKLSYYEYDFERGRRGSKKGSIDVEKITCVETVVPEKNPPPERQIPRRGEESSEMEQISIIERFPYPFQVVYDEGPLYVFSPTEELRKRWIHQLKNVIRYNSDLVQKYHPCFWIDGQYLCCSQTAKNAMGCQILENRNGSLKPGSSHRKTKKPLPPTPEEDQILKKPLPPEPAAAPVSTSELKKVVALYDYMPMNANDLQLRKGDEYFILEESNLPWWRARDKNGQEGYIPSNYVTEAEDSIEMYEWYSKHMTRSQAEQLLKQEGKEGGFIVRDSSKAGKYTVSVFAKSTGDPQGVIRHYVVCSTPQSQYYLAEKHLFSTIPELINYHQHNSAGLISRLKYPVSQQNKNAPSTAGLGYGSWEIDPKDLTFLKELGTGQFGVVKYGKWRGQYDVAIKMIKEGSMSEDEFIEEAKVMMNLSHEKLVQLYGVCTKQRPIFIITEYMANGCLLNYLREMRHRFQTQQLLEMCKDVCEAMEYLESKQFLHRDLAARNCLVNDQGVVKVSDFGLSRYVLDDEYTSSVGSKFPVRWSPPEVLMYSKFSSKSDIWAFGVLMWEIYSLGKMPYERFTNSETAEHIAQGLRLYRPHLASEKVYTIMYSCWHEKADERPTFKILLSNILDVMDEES
MSK1, sequence (O75582 whole entry): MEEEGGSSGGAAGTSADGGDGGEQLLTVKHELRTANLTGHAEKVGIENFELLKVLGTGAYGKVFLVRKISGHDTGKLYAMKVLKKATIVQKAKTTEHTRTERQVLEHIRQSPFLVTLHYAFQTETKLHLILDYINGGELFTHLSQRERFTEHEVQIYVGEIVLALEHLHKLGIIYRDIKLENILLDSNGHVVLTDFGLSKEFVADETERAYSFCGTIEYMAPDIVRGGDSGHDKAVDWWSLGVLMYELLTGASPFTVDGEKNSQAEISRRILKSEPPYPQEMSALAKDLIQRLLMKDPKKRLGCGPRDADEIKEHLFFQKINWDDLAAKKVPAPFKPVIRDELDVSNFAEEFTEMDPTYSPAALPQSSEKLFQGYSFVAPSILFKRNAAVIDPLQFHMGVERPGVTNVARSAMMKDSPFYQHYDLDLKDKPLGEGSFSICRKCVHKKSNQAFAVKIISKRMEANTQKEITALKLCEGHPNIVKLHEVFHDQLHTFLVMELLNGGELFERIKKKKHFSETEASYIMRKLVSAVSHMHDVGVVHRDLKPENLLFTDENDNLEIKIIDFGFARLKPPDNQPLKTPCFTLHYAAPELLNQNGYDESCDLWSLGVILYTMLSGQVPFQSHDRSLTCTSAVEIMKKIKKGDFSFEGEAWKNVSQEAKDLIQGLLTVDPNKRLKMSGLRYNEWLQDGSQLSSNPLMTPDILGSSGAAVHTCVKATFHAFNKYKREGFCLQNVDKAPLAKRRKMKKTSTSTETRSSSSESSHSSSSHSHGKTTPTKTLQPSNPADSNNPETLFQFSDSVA
MST4, sequence (Q9P289 whole entry): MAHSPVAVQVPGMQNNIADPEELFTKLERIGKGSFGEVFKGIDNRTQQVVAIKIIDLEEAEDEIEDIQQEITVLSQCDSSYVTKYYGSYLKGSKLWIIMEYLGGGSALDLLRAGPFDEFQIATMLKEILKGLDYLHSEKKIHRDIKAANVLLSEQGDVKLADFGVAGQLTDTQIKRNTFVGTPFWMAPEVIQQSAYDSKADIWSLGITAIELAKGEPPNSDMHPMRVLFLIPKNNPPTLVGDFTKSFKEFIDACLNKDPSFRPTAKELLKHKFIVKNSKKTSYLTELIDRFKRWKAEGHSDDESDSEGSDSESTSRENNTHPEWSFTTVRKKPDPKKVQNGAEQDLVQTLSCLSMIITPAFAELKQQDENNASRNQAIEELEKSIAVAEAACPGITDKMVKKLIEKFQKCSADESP

COc1ccc2sc(-c3cncc(NC(C)=O)c3)nc2c1 [PST-001, N-(5-(5-Methoxybenzo[d]thiazol-2-yl)pyridin-3-yl)acetamide]
remaining activity at 1 µM (MSK1): 104%
remaining activity at 100 µM (MSK1): 64%
remaining activity at 1 µM (TBK1): 119%
remaining activity at 100 µM (TBK1): 104%
remaining activity at 1 µM (CDK9-Cyclin T1): 122%
remaining activity at 100 µM (CDK9-Cyclin T1): 120%
Remaining protein kinase activity (BTK; 1 μM): 92%
Remaining protein kinase activity (BTK; 100 μM): 86%
remaining activity at 1 µM (MST4): 112%
remaining activity at 100 µM (MST4): 113%
remaining activity at 1 µM (PRK2): 102%
remaining activity at 100 µM (PRK2): 101%
remaining activity at 1 µM (TTK): 88%
remaining activity at 100 µM (TTK): 69%
remaining activity at 1 µM (VEG-FR): 111%
remaining activity at 100 µM (VEG-FR): 41%

COc1ccc2sc(-c3cncc(N)c3)nc2c1 [compound 1, 5-(5-Methoxybenzo[d]thiazol-2-yl)pyridin-3-amine]
remaining activity at 1 µM (MSK1; MSK1, 1 μM): 109%
remaining activity at 100 µM (MSK1; MSK1, 100 μM): 60%
remaining activity at 1 µM (TBK1; TBK1, 1 μM): 105%
remaining activity at 100 µM (TBK1; TBK1, 100 μM): 60%
remaining activity at 1 µM (CDK9-Cyclin T1; CDK9-Cyclin T1, 1 μM): 113%
remaining activity at 100 µM (CDK9-Cyclin T1; CDK9-Cyclin T1, 100 μM): 83%
Remaining protein kinase activity (BTK; 1 μM): 101%
Remaining protein kinase activity (BTK; 100 μM): 31%
remaining activity at 1 µM (MST4; MST4, 1 μM): 101%
remaining activity at 100 µM (MST4; MST4, 100 μM): 72%
remaining activity at 1 µM (PRK2; PRK2, 1 μM): 103%
remaining activity at 100 µM (PRK2; PRK2, 100 μM): 74%
remaining activity at 1 µM (TTK; TTK, 1 μM): 86%
remaining activity at 100 µM (TTK; TTK, 100 μM): 47%
remaining activity at 1 µM (VEG-FR; VEG-FR, 1 μM): 110%
remaining activity at 100 µM (VEG-FR; VEG-FR, 100 μM): 20%
